These results are taken from patent US20060276464A1, “Diarylsulfone sulfonamides and use thereof” (Wyeth, priority 2005, published 2006).

Each structure is given as a SMILES string. Where two headings read alike, the source gives them in different places.

In assay [1] the target is T1, SFRP-1 (Homo sapiens, UniProt Q8N474).
T1 sequence (Q8N474 32-314): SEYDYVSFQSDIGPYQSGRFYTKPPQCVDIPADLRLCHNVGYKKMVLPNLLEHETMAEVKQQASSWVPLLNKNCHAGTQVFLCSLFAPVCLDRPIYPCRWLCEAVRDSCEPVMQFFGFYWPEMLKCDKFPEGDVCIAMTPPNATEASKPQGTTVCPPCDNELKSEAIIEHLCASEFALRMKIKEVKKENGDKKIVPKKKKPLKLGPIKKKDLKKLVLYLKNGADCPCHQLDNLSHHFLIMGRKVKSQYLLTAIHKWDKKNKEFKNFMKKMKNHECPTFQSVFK
As to the kind of experiment: Cell-based assay for in vitro measurement of SFRP-1/SARP2 antagonist activity (U2OS cells co-transfected with 16x TCF-tk-Luciferase reporter, Wnt and hSFRP-1).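 Note: U2OS cells co-transfected with a TCF-tk luciferase reporter, a Wnt vector, hSFRP-1 or empty vector and CMV-βgal, luciferase luminescence read in cell lysates alongside βgal activity.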 The note with it: U2OS. In general terms: A reporter such as luciferase makes a cellular process visible.

Assay [2] addresses T1, SFRP-1. Briefly: Fluorescence polarization binding assay (competitive displacement of a probe compound from SFRP-1).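 Note: test compound competes with a fluorescent probe held by SFRP-1, seen as a drop in probe anisotropy after incubation in darkness, with anisotropy as function of rising compound dose.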 The note with it: fluorescence anisotropy, 45 nM SFRP-1, 20 nM probe. A general note: In fluorescence polarisation assays a small probe gives low polarisation when free and higher when bound to something large.
Setting [3] is: read-out: Fold Induction with SFRP-1, Conc 15 μM, with SFRP-1, fold induction over SFRP-1 control, single dose.
[4] abbreviates: read-out: Fold Induction without SFRP-1, Conc 15 μM, without SFRP-1, single dose.

`COc1cccc(S(=O)(=O)c2ccc(C(C)C)c(S(=O)(=O)NCCc3ccccn3)c2)c1` [Example 456, 2-isopropyl-5-[(3-methoxyphenyl)sulfonyl]-N-(2-pyridin-2-ylethyl)benzenesulfonamide]: the fold induction at 15 µM in assay [1] (setting [3]) was determined as 3.6; in assay [1] (setting [4]), 1. The IC50 (commonly the point on the concentration scale where inhibition reaches its midpoint) in assay [2] was determined as 800 nM.
As for `COc1ccccc1S(=O)(=O)c1ccc(C(C)C)c(S(=O)(=O)NCCc2ccccn2)c1` [Example 457, 2-isopropyl-5-[(2-methoxyphenyl)sulfonyl]-N-(2-pyridin-2-ylethyl)benzenesulfonamide], the fold induction at 15 µM was found to be 2.9 in assay [1] (setting [3]) and 1 in assay [1] (setting [4]). For the same compound, the IC50 in assay [2] was found to be 1100 nM.
As to `CC(C)(C)c1ccc(S(=O)(=O)c2ccccc2)cc1S(=O)(=O)NCCc1ccccn1` [Example 461, 2-tert-butyl-5-(phenylsulfonyl)-N-(2-pyridin-2-ylethyl)benzenesulfonamide], the figures for the fold induction at 15 µM in assay [1] (setting [3]) and in assay [1] (setting [4]) were 1.7 and 1, respectively. This compound also came in with an IC50 in assay [2] of 700 nM.
On the same counts, the results for `COc1ccccc1C(=O)N1CCC(NS(=O)(=O)c2cc(S(=O)(=O)c3ccccc3)ccc2C)CC1` [Example 462, N-[1-(2-methoxybenzoyl)piperidin-4-yl]-2-methyl-5-(phenylsulfonyl)benzenesulfonamide] are 2.9, 1 and 2000 nM.
For `COc1cccc(C(=O)N2CCC(NS(=O)(=O)c3cc(S(=O)(=O)c4ccccc4)ccc3C)CC2)c1` [Example 463, N-[1-(3-methoxybenzoyl)piperidin-4-yl]-2-methyl-5-(phenylsulfonyl)benzenesulfonamide], the values for the fold induction at 15 µM in assay [1] (setting [3]) and in assay [1] (setting [4]) were 2.9 and 1, respectively. This compound showed an IC50 in assay [2] of 700 nM.
The corresponding values for `COc1ccc(C(=O)N2CCC(NS(=O)(=O)c3cc(S(=O)(=O)c4ccccc4)ccc3C)CC2)cc1OC` [Example 464, N-[1-(3,4-dimethoxybenzoyl)piperidin-4-yl]-2-methyl-5-(phenylsulfonyl)benzenesulfonamide] are 2.1, 1 and 3000 nM.
With `Cc1ccc(S(=O)(=O)c2ccccc2)cc1S(=O)(=O)NC1CCN(C(=O)c2cccc(C(F)(F)F)c2)CC1` [Example 465, 2-methyl-5-(phenylsulfonyl)-N-{1-[3-(trifluoromethyl)benzoyl]piperidin-4-yl}benzenesulfonamide], the fold induction at 15 µM in assay [1] (setting [3]) is 1.9; in assay [1] (setting [4]) it was 1.1. Further, in assay [2], the half-maximal inhibitory concentration (IC50) was determined as 4000 nM.
For the compound `Cc1ccc(S(=O)(=O)c2ccccc2)cc1S(=O)(=O)NC1CCN(C(=O)c2ccc(Cl)cc2)CC1` [Example 466, N-[1-(4-chlorobenzoyl)piperidin-4-yl]-2-methyl-5-(phenylsulfonyl)benzenesulfonamide], the figures for the fold induction at 15 µM in assay [1] (setting [3]) and in assay [1] (setting [4]) were 1.7 and 1.1, respectively. For the same compound, in assay [2], the IC50 stood at 1700 nM.
On the same counts, the results for `COc1ccc(C(=O)N2CCC(NS(=O)(=O)c3cc(S(=O)(=O)c4ccccc4)ccc3C)CC2)cc1` [Example 467, N-[1-(4-methoxybenzoyl)piperidin-4-yl]-2-methyl-5-(phenylsulfonyl)benzenesulfonamide] are 2.3, 1 and 1900 nM.
On the same counts, the results for `Cc1ccc(C(=O)N2CCC(NS(=O)(=O)c3cc(S(=O)(=O)c4ccccc4)ccc3C)CC2)cc1` [Example 468, 2-methyl-N-[1-(4-methylbenzoyl)piperidin-4-yl]-5-(phenylsulfonyl)benzenesulfonamide] are 2, 1.2 and 1000 nM.
Regarding `Cc1ccc(S(=O)(=O)c2ccccc2)cc1S(=O)(=O)NC1CCN(C(=O)C2CCCCC2)CC1` [Example 471, N-[1-(cyclohexylcarbonyl)piperidin-4-yl]-2-methyl-5-(phenylsulfonyl)benzenesulfonamide], the values for the fold induction at 15 µM in assay [1] (setting [3]) and in assay [1] (setting [4]) were 2.1 and 1.1, respectively. In assay [2], this compound had an IC50 of 2200 nM.
